# Source: patent US20230012374A1, “PROCESS FOR PRODUCING HERBICIDE AND INTERMEDIATE THEREOF” (KUMIAI CHEMICAL INDUSTRY CO., LTD., priority 2019, published 2023)
# Assay: Bulk specific gravity of pyroxasulfone crystals
# Assay type: physicochemical
# Conditions: crystal of pyroxasulfone
smiles,measurement,value
"Cn1nc(C(F)(F)F)c(CS(=O)(=O)C2=NOC(C)(C)C2)c1OC(F)F [Example 3-1, 3-[(5-difluoromethoxy-1-methyl-3-trifluoromethylpyrazol-4-yl)methylsulfonyl]-4,5-dihydro-5,5-dimethylisoxazole]",bulk specific gravity,1.04 g/mL
"Cn1nc(C(F)(F)F)c(CS(=O)(=O)C2=NOC(C)(C)C2)c1OC(F)F [Comparative Example 3-1, 3-[(5-difluoromethoxy-1-methyl-3-trifluoromethylpyrazol-4-yl)methylsulfonyl]-4,5-dihydro-5,5-dimethylisoxazole]",bulk specific gravity,0.53 g/mL
